Experiment [1] addresses T1, δ receptors in rat brain membranes (Rattus norvegicus, UniProt P33533).
T1 construct: Rat brain membranes are thawed at 37° C; from tissue; host or cells: rat brain homogenate membranes
As to the kind of experiment: Rat brain functional assay (GTPγ35S binding, rat brain membranes). It counts as biochemical. The note with it: Table 1, relative to SNC80. Here is the method:
(§1) • A. Human 293S cells expressing cloned human κ, δ and μ receptors and neomycin resistance are grown in suspension at 37° C. and 5% CO2 in shaker flasks containing calcium-free DMEM10% FBS, 5% BCS, 0.1% Pluronic F-68, and 600 μg/ml geneticin. • B. Rat brains are weighed and rinsed in ice-cold PBS (containing 2.5 mM EDTA, pH 7.4). The brains are homogenized with a polytron for 30 sec (rat) in ice-cold lysis buffer (50 mM Tris, pH 7.0, 2.5 mM EDTA, with phenylmethylsulfonyl fluoride added just prior use to […] from a 0.5M stock in DMSO:ethanol). Membrane Preparation
(§2) The agonist activity of the compounds is measured by determining the degree to which the compounds receptor complex activates the binding of GTP to G-proteins to which the receptors are coupled. In the GTP binding assay, GTP[γ]^35S is combined with test compounds and membranes from HEK-293S cells expressing the cloned human opioid receptors or from homogenised rat and mouse brain. Agonists stimulate GTP[γ]^35S binding in these membranes. The EC50 and Emax values of compounds are determined from dose-response curves. Right shifts of the dose response curve by the delta antagonist naltrindole are performed to verify that agonist activity is mediated through delta receptors. For human δ receptor functional assays, EC50 (low) is measured when the human δ receptors used in the assay were expressed at lower levels in comparison with those used in determining EC50 (high). The Emax values were determined in relation to the standard δ agonist SNC80, i.e., higher than 100% is a compound that have better efficacy than SNC80.
Rat brain membranes are thawed at 37° C., passed 3 times through a 25-gauge blunt-end needle and diluted in the GTPγS binding (50 mM Hepes, 20 mM NaOH, 100 mM NaCl, 1 mM EDTA, 5 mM MgCl2, pH 7.4, Add fresh: 1 mM DTT, 0.1% BSA). 120 μM GDP final is added membranes dilutions. […] The basal and maximal stimulated binding are determined in absence and presence of 3 μM SNC-80
For orientation: GTPγS is a poorly hydrolysed GTP analogue; its binding reports G protein activation.

In experiment [2] the target is T2, human δ receptors (Homo sapiens, UniProt P41143).
T2 construct: expressed in transfected cells; host or cells: human 293S (HEK-293S) cells
As to the kind of experiment: Binding assay, membranes of human 293S cells expressing cloned human δ receptors.

The target in experiment [3] is T2, human δ receptors. As to the kind of experiment: Human δ receptor functional assay (GTP[γ]35S binding, HEK-293S cell membranes). It counts as biochemical. The note with it: for Emax: relative to standard δ agonist SNC80, receptors expressed at higher levels, read-out: Human δ % EMax (high). Here is the method: as §1
Cells are pelleted and resuspended in lysis buffer (50 mM Tris, pH 7.0, 2.5 mM EDTA, with PMSF added just prior to use to 0.1 mM from a 0.1 M stock in ethanol), incubated on ice for 15 min, then homogenized with a polytron for 30 sec. The suspension is spun at 1000 g (max) for 10 min at 4° C. The supernatant is saved on ice and the pellets resuspended and spun as before. The supernatants from both spins are combined and spun at 46,000 g(max) for 30 min. The pellets are resuspended in cold Tris buffer (50 mM Tris/Cl, pH 7.0) and spun again. The final pellets are resuspended in membrane buffer (50 mM Tris, 0.32 M sucrose, pH 7.0). Aliquots (1 ml) in polypropylene tubes are frozen in dry ice/ethanol and stored at −70° C. until use. The protein concentrations are determined by a modified Lowry assay with sodium dodecyl sulfate.
as §2

The target of the next experiment is T3, human κ receptors (Homo sapiens, UniProt P41145).
T3 construct: expressed in transfected cells; host or cells: human 293S cells
As to the kind of experiment: Binding assay, membranes of human 293S cells expressing cloned human κ receptors.

Where two headings read alike, the source gives them in different places.

A word on the Emax: it is the greatest response seen or fitted, relative to the assay's reference. In general, IC50 refers to the concentration at which inhibition is half-maximal. The EC50 is the concentration that produces a half-maximal response.

T2 sequence (P41143 whole entry): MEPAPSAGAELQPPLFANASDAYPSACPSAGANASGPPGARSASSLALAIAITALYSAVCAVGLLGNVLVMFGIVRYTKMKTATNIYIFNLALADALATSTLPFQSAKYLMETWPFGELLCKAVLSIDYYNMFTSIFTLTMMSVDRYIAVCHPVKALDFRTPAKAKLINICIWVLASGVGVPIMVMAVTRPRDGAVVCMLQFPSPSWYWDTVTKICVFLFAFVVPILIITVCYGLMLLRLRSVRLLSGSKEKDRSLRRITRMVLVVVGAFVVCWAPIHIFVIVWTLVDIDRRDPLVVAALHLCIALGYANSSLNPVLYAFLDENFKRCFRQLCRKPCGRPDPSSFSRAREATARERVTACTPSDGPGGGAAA
T1 sequence (P33533 whole entry): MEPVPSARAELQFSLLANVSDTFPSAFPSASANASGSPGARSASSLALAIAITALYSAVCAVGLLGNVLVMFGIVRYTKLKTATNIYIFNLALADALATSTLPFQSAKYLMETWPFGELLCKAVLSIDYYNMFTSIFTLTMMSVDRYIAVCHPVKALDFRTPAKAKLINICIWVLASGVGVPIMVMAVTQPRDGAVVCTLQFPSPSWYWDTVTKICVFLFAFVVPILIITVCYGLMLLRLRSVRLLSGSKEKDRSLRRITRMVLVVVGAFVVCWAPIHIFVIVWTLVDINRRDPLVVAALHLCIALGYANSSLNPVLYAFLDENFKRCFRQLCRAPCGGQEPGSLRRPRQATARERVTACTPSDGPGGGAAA
T3 sequence (P41145 whole entry): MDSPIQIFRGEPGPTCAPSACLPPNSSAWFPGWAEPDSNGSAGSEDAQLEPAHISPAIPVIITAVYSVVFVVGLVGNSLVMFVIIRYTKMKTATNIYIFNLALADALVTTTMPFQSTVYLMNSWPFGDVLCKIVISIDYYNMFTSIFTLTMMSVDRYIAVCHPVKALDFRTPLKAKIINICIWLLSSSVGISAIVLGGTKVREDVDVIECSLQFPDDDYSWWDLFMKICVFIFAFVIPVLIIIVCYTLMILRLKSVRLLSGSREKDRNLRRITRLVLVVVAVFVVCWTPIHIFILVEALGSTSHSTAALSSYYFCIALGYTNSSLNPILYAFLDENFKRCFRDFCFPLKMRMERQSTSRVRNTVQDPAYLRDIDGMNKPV

As to `CCN(CC)C(=O)c1ccc([C@H](c2cccc(NC(=O)OC)c2)N2CCN(Cc3ccccc3)CC2)cc1` [Compound 1, R-Methyl 3-[(4-[(diethylamino)carbonyl]phenyl)(4-benzyl-piperazin-1-yl)methyl]phenylcarbamate], the Emax is 135 to 170% in experiment [1] and 89 to 102% on human δ receptors [3] (Table 1). This molecule also registered a half-inhibitory concentration (IC50) at human δ receptors [2] of 0.25 to 0.74 nM. This molecule displayed an EC50 at human δ receptors [3] of 0.55 to 1.93 nM.
For `CCN(CC)C(=O)c1ccc([C@@H](c2cccc(NC(=O)OC)c2)N2CCN(Cc3ccccc3)CC2)cc1` [Compound 2, S-Methyl 3-[(4-[(diethylamino)carbonyl]phenyl)(4-benzyl-piperazin-1-yl)methyl]phenylcarbamate], in that order: 135 to 170%, 89 to 102%, 0.25 to 0.74 nM and 0.55 to 1.93 nM.
For `CCN(CC)C(=O)c1ccc([C@@H](c2cccc(NC(=O)OC)c2)N2CCN(Cc3cccs3)CC2)cc1` [Compound 3, S-Methyl 3-{{4-[(diethylamino)carbonyl]phenyl}[4-(thien-2-ylmethyl)piperazin-1-yl]methyl}phenylcarbamate], in that order: 135 to 170%, 89 to 102%, 0.25 to 0.74 nM and 0.55 to 1.93 nM.
Taken in the same sequence, the figures for `CCN(CC)C(=O)c1ccc([C@H](c2cccc(NC(=O)OC)c2)N2CCN(Cc3cccs3)CC2)cc1` [Compound 4, R-Methyl 3-{{4-[(diethylamino)carbonyl]phenyl}[4-(thien-2-ylmethyl)piperazin-1-yl]methyl}phenylcarbamate] were 135 to 170%, 89 to 102%, 0.25 to 0.74 nM and 0.55 to 1.93 nM.
As to `CCN(CC)C(=O)c1ccc([C@@H](c2cccc(NC(=O)OC)c2)N2CCN(Cc3ccsc3)CC2)cc1` [Compound 5, S-Methyl 3-{{4-[(diethylamino)carbonyl]phenyl}[4-(thien-3-ylmethyl)piperazin-1-yl]methyl}phenylcarbamate], the figures for the Emax (in experiment [1]; at human δ receptors [3] (Table 1)) were 135 to 170% and 89 to 102%, respectively. Besides, the IC50 at human δ receptors [2] fell in the range of 0.25 to 0.74 nM. For the same molecule, at human δ receptors [3], the EC50 lay within 0.55 to 1.93 nM.
In the case of `CCN(CC)C(=O)c1ccc([C@H](c2cccc(NC(=O)OC)c2)N2CCN(Cc3ccsc3)CC2)cc1` [Compound 6, R-Methyl 3-{{4-[(diethylamino)carbonyl]phenyl}[4-(thien-3-ylmethyl)piperazin-1-yl]methyl}phenylcarbamate], the figures for the Emax (in experiment [1]; on human δ receptors [3] (Table 1)) were 135 to 170% and 89 to 102%, respectively. The same molecule displayed an IC50 at human δ receptors [2] of 0.25 to 0.74 nM. This molecule also registered an EC50 on human δ receptors [3] of 0.55 to 1.93 nM.
Taken in the same sequence, the figures for `CCN(CC)C(=O)c1ccc([C@@H](c2cccc(NC(=O)OC)c2)N2CCN(Cc3ccco3)CC2)cc1` [Compound 7, S-Methyl 3-{{4-[(diethylamino)carbonyl]phenyl}[4-(2-furylmethyl)piperazin-1-yl]methyl}phenylcarbamate] were 135 to 170%, 89 to 102%, 0.25 to 0.74 nM and 0.55 to 1.93 nM.
For `CCN(CC)C(=O)c1ccc([C@H](c2cccc(NC(=O)OC)c2)N2CCN(Cc3ccco3)CC2)cc1` [Compound 8, R-Methyl 3-{{4-[(diethylamino)carbonyl]phenyl}[4-(2-furylmethyl)piperazin-1-yl]methyl}phenylcarbamate], in that order: 135 to 170%, 89 to 102%, 0.25 to 0.74 nM and 0.55 to 1.93 nM.
As for `CCN(CC)C(=O)c1ccc([C@@H](c2cccc(NC(=O)OC)c2)N2CCN(Cc3ccoc3)CC2)cc1` [Compound 9], the maximal response (Emax) in experiment [1] was in the range of 135 to 170%; at human δ receptors [3] (Table 1), 89 to 102%. At human δ receptors [2], this molecule displayed an IC50 of 0.25 to 0.74 nM. For the same molecule, the EC50 on human δ receptors [3] is 0.55 to 1.93 nM.
Taken in the same sequence, the figures for `CCN(CC)C(=O)c1ccc([C@H](c2cccc(NC(=O)OC)c2)N2CCN(Cc3ccoc3)CC2)cc1` [Compound 10, R-Methyl 3-{{4-[(diethylamino)carbonyl]phenyl}[4-(3-furylmethyl)piperazin-1-yl]methyl}phenylcarbamate] were 135 to 170%, 89 to 102%, 0.25 to 0.74 nM and 0.55 to 1.93 nM.
For `CCN(CC)C(=O)c1ccc([C@H](c2cccc(NC(=O)OC)c2)N2CCN(Cc3ncc[nH]3)CC2)cc1` [Compound 11, R-Methyl 3-{{4-[(diethylamino)carbonyl]phenyl}[4-(1H-imidazol-2-ylmethyl)piperazin-1-yl]methyl}phenylcarbamate], the Emax fell in the range of 135 to 170% in experiment [1] and 89 to 102% on human δ receptors [3] (Table 1). Moreover, the IC50 lay within 0.25 to 0.74 nM on human δ receptors [2] (Table 1, displacement of radioactive δ receptor ligand, read-out: Human δ IC50) and 247 to 1640 nM on human κ receptors. Also, the EC50 at human δ receptors [3] (Table 1, human δ receptors expressed at higher levels, read-out: Human δ EC50 (high)) is 0.55 to 1.93 nM.

Source of the values: patent publication US7960389B2, “4(phenyl-piperazinyl-methyl) benzamide derivatives and their use for the treatment of pain or gastrointestinal disorders” (priority 2002, dated 2011).
